Experiments:
[1] = biological target: recombinant human FGFR1 catalytic domain (Homo sapiens (Human), UniProt P11362); assay: FGFR Enzyme Activity Assay (LanthaScreen TR-FRET), FGFR1; type: biochemical; conditions: 15 μM ATP, 20 minutes incubation; read-out: FGFR1 Enz FRET IC50
Method: FGFR1 kinase activity was measured by the Invitrogen LanthaScreen™ Assay technology which directly measures the amount of substrate phosphorylation by Time-resolved fluorescence energy transfer (TR-FRET) using a flourescently-labeled peptide and Europium-labeled antibody. Briefly, 200 pM His-tagged recombinant human FGFR1 catalytic domain (amino acids 308-731) (Life Technologies Cat. No. PR4660A) was incubated with 100 nM Alexa Fluor® 647-Poly-GT Peptide Substrate (Life Technologies Cat. No. PV5836) and 15 μM ATP along with test compound in a buffer consisting of 250 mM HEPES, 25 mM MgCl2, 0.05% TritonX-100, pH 7.5, and 2% DMSO. Compounds were typically prepared in a threefold serial dilution in DMSO and added to the assay to give the appropriate final concentration. After a 20 minutes incubation at 22° C., an equal volume of 2 nM LanthaScreen® Eu-PY20 Antibody (Life Technologies Cat. No. PV5691) and 10 mM EDTA was added to quench the kinase reaction and start the detection reaction. After an additional 60 minute incubation at 22° C., the reaction was measured using a PerkinElmer EnVision multimode plate reader via TR-FRET dual wavelength detection, and the percent of control (POC) calculated using a ratiometric emission factor. 100 POC was determined using no test compounds and 0 POC was determined using no enzyme. The POC values were fit to a 4-parameter logistic curve as a function of the concentration of the compound, and the IC50 value is the point where the curve crosses 50 POC.

phosphorylated FGFR3 = phosphorylated FGFR3 (Homo sapiens (Human), UniProt P22607); assay: FGFR Enzyme Binding Assay (HTRF tracer displacement), FGFR3; conditions: 5 nM phosphorylated FGFR3, 60 minute incubation at 22° C.; read-out: FGFR3 Enz Binding IC50
Method: The potency of compounds inhibiting human isoforms of FGFR kinase was determined using Life Technologies' Homogeneous Time Resolved Fluorescence (HTRF)-based binding assay technology. An incubation was conducted with either 5 nM dephosphorylated FGFR1 (Array Biopharma, p1702; SEQ ID NO: 1, amino acids 458 to 765, dephosphorylated by co-expression with PTP1b (protein tyrosine phosphatase 1B)), 5 nM dephosphorylated FGFR2 (Life Technologies, Cat. No. PV4106 that had been dephosphorylated with Lambda protein phosphatase (New England Biolabs, cat #P0753)) or 5 nM phosphorylated FGFR3 (Array Biopharma, p1836; SEQ ID NO: 5, amino acids 449 to 759), 50 nM Kinase Tracer 236 (Life Technologies Cat. No. PR9078A), 2 nM Biotin-anti-6HIS (Life Technologies Cat. No. PV6090) and 2 nM Europium-Streptavidin (Life Technologies Cat. No. PV6025) along with test compound in a buffer consisting of 50 mM HEPES ((4-(2-hydroxyethyl)-1-piperazineethanesulfonic acid, pH 7.5), 5 mM MgCl2, 0.005% Triton X-100, 1 mM DTT, 1 mM NaVO4 and 2% DMSO in a final volume of 12 μL Compounds were typically prepared as a 3-fold or 4-fold serial dilution in DMSO and added to the assay to give the appropriate final concentration. After a 60 minute incubation at 22° C., the extent of tracer displacement was determined using a PerkinElmer EnVision multimode plate reader via HTRF dual wavelength detection, and the percent of control (POC) was calculated using a ratiometric emission factor. One hundred POC was determined using no test compound, and 0 POC was determined in the presence of 1 μM of an appropriate control inhibitor. A 4-parameter logistic curve was fit to the POC values as a function of the concentration of compound, and the IC50 value was the point where the best-fit curve crossed 50 POC.

FGFR1 = FGFR1 (Homo sapiens (Human), UniProt P11362); assay: LC/MS FGFR1 kobs assay (covalent modification); type: biochemical; conditions: 500 nM FGFR1, 3 μM compound
Method: The LC/MS FGFR1 and FGFR3 kobs assays were conducted as follows. 500 nM FGFR1 (Array BioPharma construct p1702; SEQ ID NO: 1, amino acids 458-765) or FGFR3 (Array BioPharma construct p1700; SEQ ID NO: 5, amino acids 449-759) were incubated with 3 μM compound in 25 mM HEPES (4-(2-hydroxyethyl)-1-piperazineethanesulfonic acid), pH 7.4, 5 mM MgCl2, 150 mM NaCl, 0.5 mM TCEP (tris(2-carboxyethyl) phosphine), and 2% DMSO in a total volume of 20 μL. At each time point, the reaction was quenched with 20 μL of 0.4% formic acid. The extent of protein modification by each compound was determined by LC/MS on an Agilent Technologies 6520 Q-TOF LC/MS. Protein signals were then automatically deconvoluted using Agilent Masshunter software. Deconvoluted mass signals were exported to Tibco Spotfire data analysis program for further processing and normalization.
Data analysis included five steps. First, the signals for the “DMSO Controls” were analyzed to determine the percent of signal associated with unmodified FGFR1 or FGFR3 at each time point. Next, the percent of the signal associated with the covalent modification was determined. Third, the average nonmodified “DMSO Control” signal was used to normalize the modified protein signals at each time point. The percent of unmodified protein was fit to an exponential decay model where A0 is the Percent Unmodified at the start of the reaction, and kobs is the observed rate constant over the time period.

FGFR3 = FGFR3 (Homo sapiens (Human), UniProt P22607); assay: FGFR Enzyme Activity Assay (LanthaScreen TR-FRET), FGFR3; type: biochemical; conditions: 25 μM ATP, 10 minute incubation; read-out: FGFR3 Enz FRET IC50
Method: FGFR3 kinase activity was measured by the Invitrogen LanthaScreen™ Assay technology which directly measures the amount of substrate phosphorylation by TR-FRET using a flourescently-labeled peptide and Europium-labeled antibody. Briefly, 750 pM N-terminal GST-HIS6 fusion protein with a 3C cleavage site recombinant human FGFR3 (amino acids R397-T806) (ProQinase Cat. No. 1068-0000-1) was incubated with 100 nM Alexa Fluor® 647-Poly-GT Peptide Substrate (Life Technologies Cat. No. PV5836) and 25 μM ATP along with test compound in a buffer consisting of 250 mM HEPES, 25 mM MgCl2, 0.05% TritonX-100, pH 7.5, and 2% DMSO. Compounds were typically prepared in a threefold serial dilution in DMSO and added to the assay to give the appropriate final concentration. After a 10 minute incubation at 22° C., an equal volume of 2 nM LanthaScreen® Eu-PY20 Antibody (Life Technologies Cat. No. PV5691) and 10 mM EDTA were added to quench the kinase reaction and start the detection reaction. After an additional 60 minute incubation at 22° C., the reaction was measured using a PerkinElmer EnVision multimode plate reader via TR-FRET dual wavelength detection, and the percent of control (POC) calculated using a ratiometric emission factor. 100 POC was determined using no test compounds and 0 POC was determined using no enzyme. The POC values were fit to a 4-parameter logistic curve as a function of the concentration of the compound, and the IC50 value is the point where the curve crosses 50 POC.

Sequence of FGFR3 (P22607 397-806): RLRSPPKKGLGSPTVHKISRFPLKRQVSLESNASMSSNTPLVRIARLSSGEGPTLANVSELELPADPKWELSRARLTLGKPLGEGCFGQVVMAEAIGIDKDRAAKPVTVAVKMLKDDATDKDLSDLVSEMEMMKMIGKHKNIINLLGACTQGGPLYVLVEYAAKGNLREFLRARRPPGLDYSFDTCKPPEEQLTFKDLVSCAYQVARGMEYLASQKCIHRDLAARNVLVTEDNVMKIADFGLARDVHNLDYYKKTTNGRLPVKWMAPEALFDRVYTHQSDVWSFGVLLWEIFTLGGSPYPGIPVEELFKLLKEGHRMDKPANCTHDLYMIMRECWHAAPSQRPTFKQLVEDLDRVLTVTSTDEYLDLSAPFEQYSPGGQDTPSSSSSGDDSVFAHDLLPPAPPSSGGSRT
Sequence of recombinant human FGFR1 catalytic domain (P11362 other isoform, or with tags, fused parts or gaps): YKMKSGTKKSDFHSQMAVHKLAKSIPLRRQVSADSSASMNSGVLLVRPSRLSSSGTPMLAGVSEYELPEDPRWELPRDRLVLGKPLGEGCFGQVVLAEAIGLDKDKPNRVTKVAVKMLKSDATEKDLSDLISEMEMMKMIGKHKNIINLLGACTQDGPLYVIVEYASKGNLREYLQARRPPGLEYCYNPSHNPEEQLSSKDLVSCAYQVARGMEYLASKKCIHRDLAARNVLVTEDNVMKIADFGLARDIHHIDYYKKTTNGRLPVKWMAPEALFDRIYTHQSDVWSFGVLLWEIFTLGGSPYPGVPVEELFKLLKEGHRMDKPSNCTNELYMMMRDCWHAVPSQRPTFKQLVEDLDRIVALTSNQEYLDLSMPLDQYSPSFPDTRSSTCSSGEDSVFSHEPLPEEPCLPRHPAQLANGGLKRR
Sequence of FGFR1 (P11362 458-765): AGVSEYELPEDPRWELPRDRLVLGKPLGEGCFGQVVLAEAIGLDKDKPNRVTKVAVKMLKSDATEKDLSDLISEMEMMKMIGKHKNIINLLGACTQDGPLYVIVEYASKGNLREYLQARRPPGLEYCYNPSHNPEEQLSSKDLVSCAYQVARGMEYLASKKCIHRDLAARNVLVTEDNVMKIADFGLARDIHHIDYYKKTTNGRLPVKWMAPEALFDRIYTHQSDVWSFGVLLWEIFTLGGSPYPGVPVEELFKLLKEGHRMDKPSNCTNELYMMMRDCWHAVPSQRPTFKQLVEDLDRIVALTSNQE
Sequence of phosphorylated FGFR3 (P22607 449-759): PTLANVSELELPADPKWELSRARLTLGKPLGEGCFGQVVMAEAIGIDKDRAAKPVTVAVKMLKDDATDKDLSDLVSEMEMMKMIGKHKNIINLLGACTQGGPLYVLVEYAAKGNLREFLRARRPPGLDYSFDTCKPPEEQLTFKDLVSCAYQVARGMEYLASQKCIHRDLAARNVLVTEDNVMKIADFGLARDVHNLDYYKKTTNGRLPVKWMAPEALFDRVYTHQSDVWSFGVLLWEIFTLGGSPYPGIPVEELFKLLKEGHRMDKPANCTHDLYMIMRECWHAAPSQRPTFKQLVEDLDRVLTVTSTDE

| SMILES | IC50 [1] [nM] | IC50 (phosphorylated FGFR3) [nM] | FGFR1 Enz kobs (FGFR1) [min⁻¹] | IC50 (FGFR3) [nM] |
| --- | --- | --- | --- | --- |
| C=CC(=O)N1CCC(C(=O)N2CCC(n3cc(-c4cnc5ccc(Nc6cc(OC)cc(OC)c6)cc5n4)cn3)CC2)CC1 [Example 3, 1-(4-(4-(4-(7-((3,5-dimethoxyphenyl)amino)-quinoxalin-2-yl)-1H-pyrazol-1-yl)piperidine-1-carbonyl)piperidin-1-yl)prop-2-en-1-one] | 51 | 5 | – | 10 |
| C=CC(=O)N1CC(C(=O)N2CCN(c3ccc(-c4cnc5ccc(Nc6cc(OC)cc(OC)c6)cc5n4)cn3)CC2)C1 [Example 5, 1-(3-(4-(5-(7-((3,5-dimethoxyphenyl)amino)-quinoxalin-2-yl)pyridin-2-yl)piperazine-1-carbonyl)azetidin-1-yl)-prop-2-en-1-one] | 448 | 59 | 0.0011 | 272 |
| COc1cc(Nc2ccc3ncc(-c4ccc(N5CCN(C(=O)C6CN(C(=O)/C=C/CN(C)C)C6)CC5)nc4)nc3c2)cc(OC)c1 [Example 6, (E)-1-(3-(4-(5-(7-((3,5-dimethoxyphenyl)amino)-quinoxalin-2-yl)pyridin-2-yl)piperazine-1-carbonyl)azetidin-1-yl)-4-(dimethylamino)but-2-en-1-one] | 216 | 9 | 0.00259 | 161 |
| COc1cc(Nc2ccc3ncc(-c4ccc(N5CCN(C(=O)C6(F)CN(C(=O)/C=C/CN(C)C)C6)CC5)nc4)nc3c2)cc(OC)c1 [Example 7, (E)-1-(3-(4-(5-(7-((3,5-dimethoxyphenyl)amino)-quinoxalin-2-yl)pyridin-2-yl)piperazine-1-carbonyl)-3-fluoroazetidin-1-yl)-4-(dimethylamino)but-2-en-1-one] | 364 | 11 | 0.00659 | 277 |
| C=CC(=O)N1CC(F)(C(=O)N2CCN(c3ccc(-c4cnc5ccc(Nc6cc(OC)cc(OC)c6)cc5n4)cn3)CC2)C1 [Example 8, 1-(3-(4-(5-(7-((3,5-dimethoxyphenyl)amino)-quinoxalin-2-yl)pyridin-2-yl)piperazine-1-carbonyl)-3-fluoroazetidin-1-yl)-prop-2-en-1-one] | 831 | 30 | 0.00384 | 631 |
| COc1cc(Nc2ccc3ncc(-c4cnn(C5CCN(C(=O)C6CN(C(=O)/C=C/CN(C)C)C6)CC5)c4)nc3c2)cc(OC)c1 [Example 9, (E)-1-(3-(4-(4-(7-((3,5-dimethoxyphenyl)amino)-quinoxalin-2-yl)-1H-pyrazol-1-yl)piperidine-1-carbonyl)azetidin-1-yl)-4-(dimethylamino)but-2-en-1-one] | 29 | 2 | 0.00278 | 23 |
| COc1cc(Nc2ccc3ncc(-c4cnn(C5CCN(C(=O)C6(C#N)CN(C(=O)/C=C/CN(C)C)C6)CC5)c4)nc3c2)cc(OC)c1 [Example 11, (E)-3-(4-(4-(7-((3,5-dimethoxyphenyl)amino)-quinoxalin-2-yl)-1H-pyrazol-1-yl)piperidine-1-carbonyl)-1-(4-(dimethyl-amino)but-2-enoyl)-azetidine-3-carbonitrile] | 44 | 3 | 0.01822 | 7 |

More lines, now with the values ahead:

| IC50 [1] [nM] | IC50 (phosphorylated FGFR3) [nM] | FGFR1 Enz kobs (FGFR1) [min⁻¹] | IC50 (FGFR3) [nM] | SMILES |
| --- | --- | --- | --- | --- |
| 54 | 2 | 0.00127 | 9 | C=CC(=O)N1CC(C(=O)N2CCC(n3cc(-c4cnc5ccc(Nc6cc(OC)cc(OC)c6)cc5n4)cn3)CC2)C1 [Example 1, 1-(3-(4-(4-(7-((3,5-dimethoxyphenyl)amino)quinoxalin-2-yl)-1H-pyrazol-1-yl)piperidine-1-carbonyl)azetidin-1-yl)prop-2-en-1-one] |
| 49 | 4 | 0.00038 | 10 | C=CC(=O)N1CC[C@@H](C(=O)N2CCC(n3cc(-c4cnc5ccc(Nc6cc(OC)cc(OC)c6)cc5n4)cn3)CC2)C1 [Example 2, (R)-1-(3-(4-(4-(7-((3,5-dimethoxyphenyl)amino)-quinoxalin-2-yl)-1H-pyrazol-1-yl)piperidine-1-carbonyl)pyrrolidin-1-yl)-prop-2-en-1-one] |
| 89 | 3 | 0.00632 | 10 | C=CC(=O)N1CC(F)(C(=O)N2CCC(n3cc(-c4cnc5ccc(Nc6cc(OC)cc(OC)c6)cc5n4)cn3)CC2)C1 [Example 4, 1-(3-(4-(4-(7-((3,5-dimethoxyphenyl)amino)-quinoxalin-2-yl)-1H-pyrazol-1-yl)piperidine-1-carbonyl)-3-fluoro-azetidin-1-yl)prop-2-en-1-one] |
| 35 | 3 | 0.01569 | 16 | COc1cc(Nc2ccc3ncc(-c4cnn(C5CCN(C(=O)C6(F)CN(C(=O)/C=C/CN(C)C)C6)CC5)c4)nc3c2)cc(OC)c1 [Example 10, (E)-1-(3-(4-(4-(7-((3,5-dimethoxyphenyl)amino)-quinoxalin-2-yl)-1H-pyrazol-1-yl)piperidine-1-carbonyl)-3-fluoro-azetidin-1-yl)-4-(dimethylamino)but-2-en-1-one] |

— patent US12351571B2, “Substituted quinoxaline compounds as inhibitors of FGFR tyrosine kinases” (ARRAY BIOPHARMA INC., priority 2018, dated 2025)
